# Reference: patent US20090124652A1, “Polymorphs of 1-(2-Methylpropyl)-1H-Imidazo[4,5-C][1,5]Naphthyridin-4-Amine Ethane-Sulfonate” (Takeda Pharmaceutical Company Limited, priority 2004, published 2009)
# “And” between values parts separate entries of the source, which are not always exact repeats. Equal values may be shown once. “Also recorded” adds a separate entry of the source.
# Columns and labels:
# [1] = Relative stability of the crystalline form; format: physicochemical
# [2] = Hygroscopicity / water sorption of the crystalline form; format: physicochemical; details: experimentally determined
# Protocol: The automated analysis of water sorption was performed using a VTI Symmetrical Gravimetric Analyzer Model 100 (SGA-100) operated in Step-Isotherm mode. The sample was exposed to a cycle of relative humidity (RH) conditions at 25° C. The relative humidity was cycled from 5% to 95% and back to 5% in increments of 5%, and the weight of the sample at each stage was recorded after equilibration (less than 0.01% weight change within 5 minutes). The percent weight change of the sample as a function of the relative humidity was plotted to yield the adsorption/desorption isotherm.
# cytokine biosynthesis = details: U.S. Pat. No. 6,194,425; cited from earlier work
# [3] = system: Peripheral blood mononuclear cells (PBMC); test: Cytokine induction in human cells (in vitro human blood cell system); format: cell-based; details: generally tested at 30-0.014 μM, incubated 18 to 24 hours, ELISA
# From the text: An in vitro human blood cell system is used to assess cytokine induction. Activity is based on the measurement of interferon (α) and tumor necrosis factor (α) (IFN and TNF, respectively) secreted into culture media as described by Testerman et al. in “Cytokine Induction by the Immunomodulators Imiquimod and S-27609,” Journal of Leukocyte Biology, 58, 365-372 (September, 1995).
# Whole blood from healthy human donors is collected by venipuncture into EDTA vacutainer tubes. Peripheral blood mononuclear cells (PBMC) are separated from whole blood by density gradient centrifugation using HISTOPAQUE-1077. Blood is diluted 1:1 with Dulbecco's Phosphate Buffered Saline (DPBS) or Hank's Balanced Salts Solution (HBSS). […]
# Following incubation the plates are centrifuged for 10 minutes at 1000 rpm (approximately 200×g) at 4° C. […] The samples are analyzed for interferon (α) by ELISA and for tumor necrosis factor (α) by ELISA or IGEN Assay.
# Interferon (α) concentration is determined by ELISA using a Human Multi-Species kit from PBL Biomedical Laboratories, New Brunswick, N.J. Results are expressed in pg/mL.
# Tumor necrosis factor (α) (TNF) concentration is determined using ELISA kits available from Biosource International, Camarillo, Calif. Alternately, the TNF concentration can be determined by ORIGEN M-Series Immunoassay and read on an IGEN M-8 analyzer from IGEN International, Gaithersburg, Md. […]
smiles,measurement,setting,value
"CC(C)Cn1cnc2c(N)nc3cccnc3c21.CCS(=O)(=O)O.O [Form C, 1-(2-methylpropyl)-1H-imidazo[4,5-c][1,5]naphthyridin-4-amine ethanesulfonate monohydrate]",stability of crystalline form,[1],relatively stable
CC(C)Cn1cnc2c(N)nc3cccnc3c21.CCS(=O)(=O)O.O (hydrate or solvate),melting point,,220 to 221 °C and 221.5 to 223.4 °C
"CC(C)Cn1cnc2c(N)nc3cccnc3c21.CCS(=O)(=O)O [Form B, 1-(2-methylpropyl)-1H-imidazo[4,5-c][1,5]naphthyridin-4-amine ethanesulfonate]",hygroscopicity,[2],hygroscopic
"CC(C)Cn1cnc2c(N)nc3cccnc3c21 [1-(2-methylpropyl)-1H-imidazo[4,5-c][1,5]naphthyridin-4-amine]",ability to induce cytokine biosynthesis,cytokine biosynthesis,induce cytokine biosynthesis
"CC(C)Cn1cnc2c(N)nc3cccnc3c21.CCS(=O)(=O)O [1-(2-methylpropyl)-1H-imidazo[4,5-c][1,5]naphthyridin-4-amine ethanesulfonate]",induction of production of interferon α and/or tumor necrosis factor α,[3],induce the production of certain cytokines; also recorded: inducing the production of interferon α and/or tumor necrosis factor α
